For four compounds, IC50 results are on record in ChEMBL document CHEMBL1158791, “Grayanane diterpenoids from the flowers of Rhododendron molle with cytotoxic activity against a Spodoptera frugiperda cell line” (J Nat Prod, 2005).

SMILES strings stand for the structures. ≈ marks a conversion by molar mass, not a printed value.

The nature of the experiment: Cytotoxicity against Spodoptera frugiperda Sf9 cells after 48 hrs. Particulars: Sf9, 48 h. The class given is functional, cell-based.
In general, IC50 refers to the concentration at which inhibition is half-maximal. `C/C=C(\C)C(=O)O[C@H]1C[C@@H](OC(C)=O)[C@@]2(C(=O)OC)CO[C@H]3[C@@H](O)[C@@](C)([C@]45O[C@@]4(C)[C@@H]4C[C@H]5O[C@@H]5OC=C[C@@]54O)[C@H]4[C@]1(CO[C@]4(O)C(=O)OC)[C@@H]32` [AZADIRACHTIN A] came in with a half-maximal inhibitory concentration (IC50) of 20.3 µg/mL (≈ 28.2 µM).
The figure for `CC1(C)[C@H]2O[C@H]2[C@H]2[C@](C)(O)[C@@H]3CC[C@@H]4[C@H](O)[C@@]3(C[C@@H](O)[C@@]21O)C[C@@]4(C)O` [RHODOJAPONIN] is 12.6 µg/mL (≈ 34.2 µM); for `C=C1[C@@H]2[C@H](OC)[C@H](O)C(C)(C)[C@@]2(O)[C@H](O)C[C@]23C[C@@](C)(O)[C@H](CC[C@@H]12)[C@H]3O` [RHODOMOLIN A] it is 37.8 µg/mL (≈ 98.8 µM).
The figure for `C=C1[C@@H]2[C@H](O)[C@H](O)C(C)(C)[C@@]2(O)[C@H](O)C[C@]23C[C@@](C)(O)[C@H](CC[C@@H]12)[C@H]3OC(C)=O` [RHODOMOLIN B] is 25.6 µg/mL (≈ 62.4 µM).
